According to patent publication US6583180B2, “Glucocorticoid receptor modulators” (Abbott Laboratories, priority 2001, dated 2003):

Key:
[1] = molecular target: T1, Human glucocorticoid receptors (Homo sapiens, UniProt P04150); assay: Radioligand filter binding assay, displacement of 3[H]-dexamethasone from hGR; conditions: read-out: GR Binding (% Inhibition at 1.7 μM)
T1 construct: made in house; host or cells: Sf9 insect cells, recombinant baculovirus (BAC-TO-BAC)
T1 sequence (P04150 1-777): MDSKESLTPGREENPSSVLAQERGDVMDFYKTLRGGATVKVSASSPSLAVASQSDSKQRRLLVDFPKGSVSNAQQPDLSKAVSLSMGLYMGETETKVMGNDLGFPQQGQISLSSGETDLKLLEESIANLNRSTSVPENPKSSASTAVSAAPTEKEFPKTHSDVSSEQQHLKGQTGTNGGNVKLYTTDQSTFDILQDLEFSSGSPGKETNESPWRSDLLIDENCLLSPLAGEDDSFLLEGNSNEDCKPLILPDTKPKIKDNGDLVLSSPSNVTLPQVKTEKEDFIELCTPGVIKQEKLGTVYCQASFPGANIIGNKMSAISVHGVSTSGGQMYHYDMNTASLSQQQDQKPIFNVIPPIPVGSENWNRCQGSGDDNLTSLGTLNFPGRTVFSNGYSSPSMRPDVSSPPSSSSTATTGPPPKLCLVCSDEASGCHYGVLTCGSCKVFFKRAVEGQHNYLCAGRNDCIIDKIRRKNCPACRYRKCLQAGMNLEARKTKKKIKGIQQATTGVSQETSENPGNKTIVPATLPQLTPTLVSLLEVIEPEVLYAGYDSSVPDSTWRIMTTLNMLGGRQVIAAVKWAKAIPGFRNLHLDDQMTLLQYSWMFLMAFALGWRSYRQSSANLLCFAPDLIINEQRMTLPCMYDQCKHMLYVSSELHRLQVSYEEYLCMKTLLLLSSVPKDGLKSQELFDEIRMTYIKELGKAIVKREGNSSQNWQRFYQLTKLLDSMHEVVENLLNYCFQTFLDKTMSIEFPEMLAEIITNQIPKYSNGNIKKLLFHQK
Summary of the method: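 Recombinant hGR extract from baculovirus-infected Sf9 cells (final ~1 nM receptor) incubated with ³H-dexamethasone and test compound dilutions in duplicate, EDTA/phosphate pH 8 buffer with MTG, overnight (15-20 h) at +4° C. Bound label collected on PEI-treated GF/B filters and scintillation-counted; IC50 from four-parameter fit of corrected cpm.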

[2] = molecular target: T2, progesterone receptor (PR) (Homo sapiens, UniProt P06401); assay: Radioligand binding assay for progesterone receptor (similar protocol);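 further: radioligand binding measured with cytosol preparations containing the human progesterone receptor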
T2 sequence (P06401 1-933): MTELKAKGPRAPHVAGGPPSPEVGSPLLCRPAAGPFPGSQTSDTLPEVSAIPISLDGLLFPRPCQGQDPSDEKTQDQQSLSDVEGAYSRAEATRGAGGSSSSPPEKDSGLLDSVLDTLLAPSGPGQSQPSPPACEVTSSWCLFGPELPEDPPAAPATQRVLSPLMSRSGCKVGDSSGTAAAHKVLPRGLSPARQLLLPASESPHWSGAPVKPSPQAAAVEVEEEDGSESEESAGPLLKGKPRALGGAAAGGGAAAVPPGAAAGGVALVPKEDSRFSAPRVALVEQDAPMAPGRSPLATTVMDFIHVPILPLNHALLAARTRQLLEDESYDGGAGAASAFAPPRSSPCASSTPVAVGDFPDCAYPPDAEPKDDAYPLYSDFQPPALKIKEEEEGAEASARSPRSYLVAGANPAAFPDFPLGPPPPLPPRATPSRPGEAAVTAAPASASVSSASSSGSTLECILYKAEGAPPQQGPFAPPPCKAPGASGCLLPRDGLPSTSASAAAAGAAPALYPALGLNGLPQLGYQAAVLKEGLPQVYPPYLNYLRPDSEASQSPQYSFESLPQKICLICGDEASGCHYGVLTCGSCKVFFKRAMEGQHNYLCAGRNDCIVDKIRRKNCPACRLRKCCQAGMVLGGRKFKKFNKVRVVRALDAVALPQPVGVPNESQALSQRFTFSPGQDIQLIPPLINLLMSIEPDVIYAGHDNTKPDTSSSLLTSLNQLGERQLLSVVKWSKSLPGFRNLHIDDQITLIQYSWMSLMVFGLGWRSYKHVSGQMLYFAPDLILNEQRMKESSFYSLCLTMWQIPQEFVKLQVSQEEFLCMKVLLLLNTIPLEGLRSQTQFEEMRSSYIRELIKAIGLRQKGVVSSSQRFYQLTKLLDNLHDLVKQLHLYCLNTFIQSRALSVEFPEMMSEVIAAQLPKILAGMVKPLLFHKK
Description: Methods for Radiolipand Binding Studies with Human Glucocorticoid and Progesterone Receptor Cytosol

Question: Which results are given for `Cc1c(NS(C)(=O)=O)cccc1N(Cc1ccc(Oc2ccc(CCC(=O)O)cc2)cc1)Cc1ccccc1F` [Example 84, 3-(4-{4-[((2-fluorobenzyl){2-methyl-3-[(methylsulfonyl)amino]phenyl}amino)methyl]phenoxy}phenyl)propanoic acid]?
Answer: inhibition at 1.7 µM [1]: 97.9%; IC50 [2]: 0.468 µM

Question: With `COc1ccc(NS(C)(=O)=O)cc1N(Cc1ccccc1Br)Cc1ccccc1Br` [Example 36, N-{3-[bis(2-bromobenzyl)amino]-4-methoxyphenyl}methanesulfonamide] as the molecule, how does the inhibition at 1.7 µM [1] read?
Answer: 85.5%

Question: And the IC50 [2]?
Answer: 1.2 µM

Question: For `COc1ccc(Oc2ccc(CN(Cc3ccc(F)cc3F)c3cccc(NS(C)(=O)=O)c3C)cc2)cc1OC` [Example 141, N-(3-{(2,4-difluorobenzyl)[4-(3,4-dimethoxyphenoxy)benzyl]amino}-2-methylphenyl)methanesulfonamide], which inhibition at 1.7 µM [1] is on record?
Answer: 85.4%

Question: What about the IC50 [2] of the same molecule?
Answer: 8.05 µM

Question: Which results are given for `Cc1c(NS(C)(=O)=O)cccc1N(Cc1ccc(Oc2cccc(OCCCC(=O)NCCCC(=O)O)c2)cc1)Cc1ccc(F)cc1F` [Example 325, 4-((4-(3-(4-(((2,4-difluorobenzyl)(2-methyl-3-((methylsulfonyl)amino)phenyl)amino)methyl)phenoxy)phenoxy)butanoyl)amino)butanoic acid]?
Answer: inhibition at 1.7 µM [1]: 97.7%; IC50 [2]: 0.122 µM

Question: `Cc1c(NS(C)(=O)=O)cccc1N(Cc1ccc(Oc2cccc(OCCCC(=O)N(C)CC(=O)O)c2)cc1)Cc1ccc(F)cc1F` [Example 326, N-(4-(3-(4-(((2,4-difluorobenzyl)(2-methyl-3-((methylsulfonyl)amino)phenyl)amino)methyl)phenoxy)phenoxy)butanoyl)-N-methylglycine] was tested. Which inhibition at 1.7 µM [1] did it give?
Answer: 97%

Question: What about the IC50 [2] of the same molecule?
Answer: 0.183 µM

Question: What does the source list for `Cc1c(NS(C)(=O)=O)cccc1N(Cc1ccccc1)Cc1ccc(Oc2cccc(CCCO)c2)cc1` [Example 65, N-[3-(benzyl{4-[3-(3-hydroxypropyl)phenoxy]benzyl}amino)-2-methylphenyl]methanesulfonamide]?
Answer: inhibition at 1.7 µM [1]: 94%; IC50 [2]: 0.633 µM

Question: `COC(=O)c1cccc(Oc2ccc(CN(Cc3ccc(F)cc3F)c3cccc(NS(C)(=O)=O)c3C)cc2)c1` [Example 67, methyl 3-{4-[((2,4-difluorobenzyl){2-methyl-3-[(methylsulfonyl)amino]phenyl}amino)methyl]phenoxy}benzoate] was tested. Which inhibition at 1.7 µM [1] did it give?
Answer: 89%

Question: And the IC50 [2]?
Answer: 0.667 µM

Question: Which inhibition at 1.7 µM [1] does the source give for `Cc1c(NS(C)(=O)=O)cccc1N(Cc1ccccc1)Cc1ccc(Oc2cccc(OCCNC(=O)CCC(=O)O)c2)cc1` [Example 78, 4-{[2-(3-{4-[(benzyl{2-methyl-3-[(methylsulfonyl)amino]phenyl}amino)methyl]phenoxy}phenoxy)ethyl]amino}-4-oxobutanoic acid] here?
Answer: 97.3%

Question: What about the IC50 [2] of the same molecule?
Answer: > 1 µM

Question: With `Cc1c(NS(C)(=O)=O)cccc1N(Cc1ccc(F)cc1F)Cc1ccccc1C#N` [Example 25, N-{3-[(2-cyanobenzyl)(2,4-difluorobenzyl)amino]-2-methylphenyl}methanesulfonamide] as the molecule, how does the inhibition at 1.7 µM [1] read?
Answer: 87.5%

Question: And the IC50 [2]?
Answer: 1.79 µM

Question: What does the source list for `Cc1c(NS(C)(=O)=O)cccc1N(Cc1ccccc1)Cc1ccc(Oc2ccc(Br)c(OCC(=O)O)c2)cc1` [Example 77, (5-{4-[(benzyl{2-methyl-3-[(methylsulfonyl)amino]phenyl}amino)methyl]phenoxy}-2-bromophenoxy)acetic acid]?
Answer: inhibition at 1.7 µM [1]: 97.1%; IC50 [2]: 0.249 µM

Question: What does the source list for `Cc1c(NS(C)(=O)=O)cccc1N(Cc1ccc(OCC=Cc2ccccc2)cc1)Cc1ccc(F)cc1F` [Example 33, N-{3-[(2,4-difluorobenzyl)(4-{[3-phenyl-2-propenyl]oxy}benzyl)amino]-2-methylphenyl}methanesulfonamide]?
Answer: inhibition at 1.7 µM [1]: 92.7%; IC50 [2]: > 10 µM

Question: With `Cc1c(NS(C)(=O)=O)cccc1N(Cc1ccccc1)Cc1ccc(Oc2ccc(CCC(=O)NCC(=O)O)cc2)cc1` [Example 104, N-[3-(4-{4-[(benzyl{2-methyl-3-[(methylsulfonyl)amino]phenyl}amino)methyl]phenoxy}phenyl)propanoyl]glycine] as the molecule, how does the inhibition at 1.7 µM [1] read?
Answer: 95.7%

Question: And the IC50 [2]?
Answer: 0.583 µM

Question: How did the inhibition at 1.7 µM [1] turn out when `Cc1c(NS(C)(=O)=O)cccc1N(Cc1ccccc1)Cc1ccc(Oc2ccc(CCC(=O)NCCCO)cc2)cc1` [Example 151, 3-(4-{4-[(benzyl{2-methyl-3-[(methylsulfonyl)amino]phenyl}amino)methyl]phenoxy}phenyl)-N-(3-hydroxypropyl)propanamide] was run?
Answer: 94.3%

Question: And the IC50 [2]?
Answer: 0.551 µM

Question: Which inhibition at 1.7 µM [1] does the source give for `Cc1c(NS(C)(=O)=O)cccc1N(Cc1ccc(Oc2ccc(CCC(=O)O)cc2)cc1)Cc1ccccc1Br` [Example 76, 3-(4-{4-[((2-bromobenzyl){2-methyl-3-[(methylsulfonyl)amino]phenyl}amino)methyl]phenoxy}phenyl)propanoic acid] here?
Answer: 96.5%

Question: And the IC50 [2]?
Answer: 0.149 µM

Question: Which IC50 [2] does the source give for `Cc1c(NS(C)(=O)=O)cccc1N(Cc1ccc(Oc2ccc(CCC(=O)O)cc2)cc1)Cc1ccc(Cl)cc1F` [Example 86, 3-(4-{4-[((4-chloro-2-fluorobenzyl){2-methyl-3-[(methylsulfonyl)amino]phenyl}amino)methyl]phenoxy}phenyl)propanoic acid] here?
Answer: 0.216 µM

Question: `Cc1c(NS(C)(=O)=O)cccc1N(Cc1ccccc1)Cc1ccc(F)cc1` [Example 9, N-{3-[benzyl(4-fluorobenzyl)amino]-2-methylphenyl}methanesulfonamide] was tested. Which IC50 [2] did it give?
Answer: 4.05 µM

Question: Which IC50 [2] does the source give for `Cc1c(NS(C)(=O)=O)cccc1N(Cc1ccccc1)Cc1ccc(Oc2ccc(C(=O)O)cc2)cc1` [Example 96, 4-{4-[(benzyl{2-methyl-3-[(methylsulfonyl)amino]phenyl}amino)methyl]phenoxy}benzoic acid] here?
Answer: > 1 µM

Question: For `Cc1c(NS(C)(=O)=O)cccc1N(Cc1ccccc1)Cc1ccc(Br)cc1` [Example 13, N-{3-[benzyl(4-bromobenzyl)amino]-2-methylphenyl}methanesulfonamide], which IC50 [2] is on record?
Answer: 1.86 µM

Question: With `Cc1c(NS(C)(=O)=O)cccc1N(Cc1ccccc1)Cc1ccc(Oc2ccc(CCCC(=O)NCC(=O)O)cc2)cc1` [Example 107, N-[4-(4-{4-[(benzyl{2-methyl-3-[(methylsulfonyl)amino]phenyl}amino)methyl]phenoxy}phenyl)butanoyl]glycine] as the molecule, how does the IC50 [2] read?
Answer: 0.743 µM

Question: Which IC50 [2] does the source give for `Cc1c(NS(C)(=O)=O)cccc1N(Cc1ccccc1)Cc1ccc(Cl)cc1Cl` [Example 32, N-{3-[benzyl(2,4-dichlorobenzyl)amino]-2-methylphenyl}methanesulfonamide] here?
Answer: 1.73 µM

Question: With `Cc1c(NS(C)(=O)=O)cccc1N(Cc1ccccc1)Cc1ccc(F)cc1F` [Example 10, N-{3-[benzyl(2,4-difluorobenzyl)amino]-2-methylphenyl}methanesulfonamide] as the molecule, how does the IC50 [2] read?
Answer: 2.31 µM

Question: `COc1ccc(CN(Cc2ccc(F)cc2F)c2cccc(NS(C)(=O)=O)c2C)cc1` [Example 22, N-{3-[(2,4-difluorobenzyl)(4-methoxybenzyl)amino]-2-methylphenyl}methanesulfonamide] was tested. Which IC50 [2] did it give?
Answer: 1.48 µM

Question: How did the IC50 [2] turn out when `CSc1ccc(CN(Cc2ccc(Cl)cc2F)c2cccc(NS(C)(=O)=O)c2C)cc1` [Example 144, N-(3-{(4-chloro-2-fluorobenzyl)[4-(methylthio)benzyl]amino}-2-methylphenyl)methanesulfonamide] was run?
Answer: 1.3 µM

Question: How did the IC50 [2] turn out when `Cc1c(NS(C)(=O)=O)cccc1N(Cc1ccccc1F)Cc1ccc(Cl)cc1F` [Example 145, N-{3-[(4-chloro-2-fluorobenzyl)(2-fluorobenzyl)amino]-2-methylphenyl}methanesulfonamide] was run?
Answer: 0.357 µM
